How the values were obtained:
[1] = system: NRASD12 expressing NIH3T3 cells; test: Immunofluorescence localization of NRASD12 after FASN inhibitor treatment; format: cell-based; details: 1 uM, 3 hrs post-treatment, anti-myc-tag immunofluorescence
Procedure: Localization of myc-tagged NRASD12 in MSCV-GFP-ires-2xmycNRASD12 infected NIH3T3 cells 3 hrs post-treatment with 1 uM cerulenin or 1 uM C75. NRASD12 were visualized by confocal microscope after probing with anti-myc-tag (9E10) antibody overnight at 4° C. and AlexaFluor-conjugated secondary antibody (red).
As a proof of principle studies of the effect of FASN inhibitors on NRAS palmitoylation/localization, we examined the effect of cerulenin and C75 on NRASD12 expressing NIH3T3 cells.

[2] = mouse, in vivo; cited from earlier work
[3] = caused by highly reactive epoxy group; cited from earlier work
[4] = system: NIH3T3 cells expressing the GFP-NRASD12 fusion protein; test: Confocal localization of GFP-NRASD12 after DHHC9 siRNA transfection; format: cell-based; details: confocal microscopy
Procedure: (§1) (A) Relative DHHC9 (SEQ ID NO: 10) mRNA levels in NIH3T3 cells transfected by either DHHC9 (SEQ ID NO: 10) siRNA or control siRNA were determined by real-time RT-PCR. (B) GFP-NRASD12 expressing NIH3T3 cells transfected by either DHHC9 (SEQ ID NO: 10) siRNA or control siRNA were visualized by confocal microscope. Original magnification was 630×.
(§2) To determine the role of DHHC9 (SEQ ID NO: 10) in NRAS biology, we first examined the effect of DHHC9 (SEQ ID NO: 10) downregulation on cellular localization of oncogenic NRAS (NRASD12). RNA interference (RNAi) is a powerful tool for gene function studies and holds promise for the development of new molecular medicines. RNAi usually downregulate but often not abolish the target mRNAs, which mimic therapies more than gene-knockout. In addition, since DHHC9 (SEQ ID NO: 10) may have substrates other than RAS, knocking out the DHHC9 (SEQ ID NO: 10) gene might be toxic to cells. For these reasons we tested several small interference RNA (siRNA) specific to murine DHHC9 (SEQ ID NO: 10) for their ability to downregulate the DHHC9 (SEQ ID NO: 10) mRNA. […] Still further, the present invention provides systems for identifying cancer patients likely to respond to therapy that includes administration of one or more palmitoyl-acyl transferase inhibitors.

murine DHHC9 mRNA = test: Real-time RT-PCR of DHHC9 mRNA after siRNA transfection; format: cell-based; details: NIH3T3 cells, compared to scrambled siRNA
Procedure: as §1, §2

3T3-KRASD12 cells = test: Cell morphology and foci (sphere) formation, 3T3-KRASD12; format: cell-based; details: 3T3-KRASD12 cells cultured for 6 days
Procedure: (§3) FIG. 16 illustrates the morphology of cultured NIH3T3 cells stably expressing the proteins and miRNAs indicated. Equal numbers (5×10^5) of cells were plated onto 100-mm plates after puromycin selection and were cultured for 6 days before representative pictures were taken (original magnification 100×)
(§4) Both 3T3-NRASD12 ^28 and 3T3-KRAS4BD12 form sphere-like foci in culture, while 3T3-MiG cells grow as normal NIH3T3 cells (FIG. 16). […] We plated equal cell numbers of scrambled or FASN miRNA-transduced, puromycin-selected 3T3-NRASD12 or 3T3-KRASD12 cell lines cultured for 6 days and observed cell morphology and foci formation (FIG. 16). […] However, these cells had somewhat altered morphology, similar to those observed in 3T3-NRASD12^C181S cells.

3T3-GFP-NRASD12 cells = test: Confocal localization of GFP-NRASD12 after FASN miRNA transduction; format: cell-based; details: confocal microscopy
Text: (§5) Fixed and permeablized cells were stained with an anti-BIP antibody, followed by an alexafluor 635-conjugated secondary antibody, and visualized on a Leica TCS SP2 Spectral Confocal Microscope. Original magnification was 630×.
(§6) We then examined the effect of knocking down FASN expression on RAS localization by the RNA interference (RNAi) approach. RNAi is endogenously mediated by microRNA (miRNA) ^30. miRNAs are generated from primary transcripts (pri-miRNAs) and processed into pre-miRNA and eventually mature miRNA. Artificial miRNAs are natural pri-miRNA in which the stem sequence of a miRNA has been substituted with a sequence targeting the gene of interest. In target cells, artificial miRNA undergoes the same processing steps of the parental pri-miRNA. A FASN specific small hairpin (sh) RNA (Open-Biosystems) was cloned into a MSCV-based retroviral shRNAmir (pSM2; Open-Biosystems) vector to generate an artificial miRNA for FASN (the cloning oligo for the FASN shRNA: 5′ TGCTGTTGACAGTGAGCGCCGCTTCTTAGAGATTGGCAAATAGTGAAGCCACAGATGTATTTGCCAATCTCTAAGAAGCGATGCCTACTGCCTCGGA 3′ (SEQ ID NO: 35)). The miRNA is under the control a U6 promoter and the vector includes a puromycin resistance gene under the control of phosphoglycerate kinase (PGK) eukaryotic promoter ^31. […]

[5] = system: NIH3T3 cells expressing GFP-KRAS4BD12; test: Confocal localization of GFP-KRAS4BD12 after FASN miRNA transduction; format: cell-based; details: confocal microscopy
Text: as §5, §6

3T3-NRASD12 cells = test: Cell morphology and foci (sphere) formation, 3T3-NRASD12; format: cell-based; details: 3T3-NRASD12 cells cultured for 6 days
Procedure: as §3, §4

FASN = test: Western blot of FASN expression after FASN miRNA transduction; format: cell-based; details: NIH3T3 cell lines, puromycin selected (data not shown)
Text: as §6, with “^31. A scrambled shRNA (the cloning oligo: 5′ TGCTGTTGACAGTGAGCGCTTCCTCTCTTTCTCTCCCTTTA GTGAAGCCACAGATGTACAAGGGAGAGAAAGAGAGGAAGGATGCCTACTGCCTCGGA 3′ (SEQ ID NO: 36)) was similarly cloned into pSM2 as a control.” for “^31.”

In the case of C=C1C(=O)OC(CCCCCCCC)C1C(=O)O (centres unmarked) [C75], the “localization of NRASD12” value [1] is given as “mislocalized to internal membranes” and the “effects of treatment on metabolism, weight and feeding” value [2] is given as “increased metabolism, rapid and significant weight loss, and fasting”.

For C/C=C/C/C=C/CCC(=O)[C@H]1O[C@H]1C(N)=O [cerulenin, Cerulenin], the “localization of NRASD12” value [1] is listed as “mislocalized to internal membranes” and the stability [3] is listed as “innate instability”.

In the case of “DHHC9 siRNA: siRNA specific to murine DHHC9; sense SEQ ID NO: 37, antisense SEQ ID NO: 38 (sense GGAAGAAGAACUAUGUAUUAUAUGT; antisense ACAUAUAAUACAUAGUUCUUCUUCCCU; chemistry not given here)”, the “localization of GFP-NRASD12” value [4] is reported as “mislocalization of GFP-NRASD12 to internal membranes” and the “levels of DHHC9 mRNA” value (murine DHHC9 mRNA) is reported as “dramatically reduced”.

B1: FASN miRNA: FASN specific small hairpin RNA (Open-Biosystems) cloned into pSM2 retroviral shRNAmir vector; cloning oligo SEQ ID NO: 35 (nucleic acid)
DNA: TGCTGTTGACAGTGAGCGCCGCTTCTTAGAGATTGGCAAATAGTGAAGCCACAGATGTATTTGCCAATCTCTAAGAAGCGATGCCTACTGCCTCGGA
In the case of B1, the “sphere (foci) formation” value (3T3-KRASD12 cells) is reported as “formed spheres”, the “localization of GFP-NRAS” value (3T3-GFP-NRASD12 cells) is reported as “mislocalized to endomembranes” and the “localization of GFP-KRAS4BD12” value [5] is reported as “localized to both the plasma membrane and internal membranes”. The “sphere (foci) formation” value (3T3-NRASD12 cells) was “no longer formed spheres” and the FASN expression (FASN) was “largely abolished”.
